Laboratory results as given in patent US12624004B2 (Fudan University, priority 2019, dated 2026).
Where a name gives a salt, the structure may show the parent alone.

Key:
δ opioid receptor = molecular target: T1, δ opioid receptor (Homo sapiens, UniProt P41143); assay: Competition binding assay on membranes of CHO cells expressing δ opioid receptor, [3H]-labeled ligand; details: for inhibition at 1 µM / inhibition at 10 µM: 0.5 h, read-out: δOR Binding rate (%); for inhibition at 1 µM: 1 μM concentration of compound; for inhibition at 10 µM: Table 1-1, 10 μM concentration of compound
T1 construct: expressed in transfected cells; host or cells: CHO cells (membranes)
Method in brief: (§1)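 CHO membranes (20–30 μg protein) incubated with [3H]-labeled ligand at 1–2 nM and test compounds, 30 min at 30° C; nonspecific binding with 1 μM corresponding ligand. Filtered on GF/C, washed with 50 mM Tris-HCl pH 7.4, scintillation-counted. IC50 converted to Ki by Ki=IC50/(1+[L]/Kd).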

Female mice = assay: In vivo hot plate method analgesia test; details: intraperitoneal, 5 mg/kg dose; for % MPE (5 mg/kg): Table 2-2, hot plate 55° C.; for Maximum percentage effective analgesic (% MPE): Table 1-2, hot plate 55° C.
Method in brief: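 Female mice (~20 g) on a 55° C hot plate, hindpaw response latency as pain threshold (pre-screen 5–30 s, 60 s cut-off). Latencies at 15, 30, 60 and 120 min after intraperitoneal dosing. %MPE = (post−pre latency)/(60−pre)×100, ED50 derived from %MPE.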

κ opioid receptor = molecular target: T2, κ opioid receptor (Homo sapiens, UniProt P41145); assay: Competition binding assay on membranes of CHO cells expressing κ opioid receptor, [3H]-labeled ligand; details: for inhibition at 1 µM / inhibition at 10 µM: 0.5 h, read-out: κOR Binding rate (%); for inhibition at 1 µM / Ki: Table 2-1; for inhibition at 1 µM: 1 μM concentration of compound; for Ki: read-out: κOR Ki; for inhibition at 10 µM: Table 1-1, 10 μM concentration of compound
T2 construct: expressed in transfected cells; host or cells: CHO cells (membranes)
Method in brief: as §1

μ opioid receptor = molecular target: T3, μ opioid receptor (Homo sapiens, UniProt P35372); assay: Competition binding assay on membranes of CHO cells expressing μ opioid receptor, [3H]-labeled ligand; details: for Ki: Table 2-1, read-out: μOR Ki; for inhibition at 10 µM: Table 1-1, 10 μM concentration of compound, mean ± SD of three measurements, read-out: μOR Binding rate (%)
T3 construct: expressed in transfected cells; host or cells: CHO cells (membranes)
Method in brief: as §1

| Structure (SMILES) | inhibition at 1 µM (δ opioid receptor; Table 2-1) | % MPE (5 mg/kg) (Female mice) | inhibition at 1 µM (κ opioid receptor) | Ki (μ opioid receptor) | Ki (δ opioid receptor; Table 2-1, read-out: δOR Ki) | Ki (κ opioid receptor) | inhibition at 10 µM (δ opioid receptor) | Maximum percentage effective analgesic (% MPE) (Female mice) | inhibition at 10 µM (κ opioid receptor) | inhibition at 10 µM (μ opioid receptor) |
| --- | --- | --- | --- | --- | --- | --- | --- | --- | --- | --- |
| COc1cccc(C2(O)CCN(S(=O)(=O)Cc3ccc(Cl)cc3)CC2CN(C)C)c1.Cl (stereo not drawn) [FWBH11, 1-((4-Chlorobenzyl)sulfonyl)-3-((dimethylamino)methyl)-4-(3-methoxyphenyl)piperidin-4-ol hydrochloride] | 50.9 ± 1.58% | 55.49% | 36.6 ± 3.32% | 0.7117 ± 0.00365 µM | – | – | – | – | – | – |
| COc1cccc(C2(O)CCN(S(=O)(=O)Cc3ccc(F)cc3)CC2CN(C)C)c1.Cl (stereo not drawn) [FWBH12, 3-((Dimethylamino)methyl)-1-((4-fluorobenzyl)sulfonyl)-4-(3-methoxyphenyl)piperidin-4-ol hydrochloride] | – | 332.92% | 45.9 ± 2.11% | 0.0392 ± 0.00613 µM | 1.11 ± 0.0285 µM | – | – | – | – | – |
| COc1cccc(C2(O)CCN(S(=O)(=O)Cc3cccc(Br)c3)CC2CN(C)C)c1.Cl (stereo not drawn) [FWBH13, 1-((3-Bromobenzyl)sulfonyl)-3-((dimethylamino)methyl)-4-(3-methoxyphenyl)piperidin-4-ol hydrochloride] | 15.1 ± 2.47% | 81.71% | 42.1 ± 2.29% | 0.0182 ± 0.00437 µM | – | – | – | – | – | – |
| COc1cccc(C2(O)CCN(S(=O)(=O)Cc3ccccc3F)CC2CN(C)C)c1.Cl (stereo not drawn) [FWBH14, 3-((Dimethylamino)methyl)-1-((2-fluorobenzyl)sulfonyl)-4-(3-methoxyphenyl)piperidin-4-ol hydrochloride] | 40.8 ± 2.66% | 81.20% | 17.6 ± 6.34% | 0.0296 ± 0.00253 µM | – | – | – | – | – | – |
| CCCCS(=O)(=O)N1CCC(O)(c2cccc(OC)c2)C(CN(C)C)C1.Cl (stereo not drawn) [FWBH15, 1-(Butylsulfonyl)-3-((dimethylamino)methyl)-4-(3-methoxyphenyl)piperidin-4-ol hydrochloride] | 27.2 ± 1.43% | 93.73% | 9.86 ± 2.67% | 0.0349 ± 0.0094 µM | – | – | – | – | – | – |
| COc1cccc(C2(O)CCN(S(=O)(=O)c3ccccc3)CC2CN(C)C)c1.Cl (stereo not drawn) [FWBH16, 3-((Dimethylamino)methyl)-4-(3-methoxyphenyl)-1-(phenylsulfonyl)piperidin-4-ol hydrochloride] | 40.5 ± 1.66% | 100% | 32.6 ± 0.55% | 0.0877 ± 0.00937 µM | – | – | – | – | – | – |
| COc1cccc(C2(O)CCN(S(=O)(=O)Cc3ccc(C(F)(F)F)cc3)CC2CN(C)C)c1.Cl (stereo not drawn) [FWBH17, 3-((Dimethylamino)methyl)-4-(3-methoxyphenyl)-1-((4-(trifluoromethyl)benzyl)sulfonyl) piperidin-4-ol hydrochloride] | 29.3 ± 1.66% | 48.32% | 25.4 ± 5.93% | 0.261 ± 0.0353 µM | – | – | – | – | – | – |
| CCS(=O)(=O)N1CCC(O)(c2cccc(OC)c2)C(CN(C)C)C1.Cl (stereo not drawn) [FWBH18, 3-((Dimethylamino)methyl)-1-(ethylsulfonyl)-4-(3-methoxyphenyl)piperidin-4-ol hydrochloride] | 24 ± 0.49% | 15.57% | 13.5 ± 2.22% | 0.18 ± 0.0117 µM | – | – | – | – | – | – |
| CCCS(=O)(=O)N1CCC(O)(c2cccc(OC)c2)C(CN(C)C)C1.Cl (stereo not drawn) [FWBH19, 3-((Dimethylamino)methyl)-4-(3-methoxyphenyl)-1-(propylsulfonyl)piperidin-4-ol hydrochloride] | 17.5 ± 4.38% | 17.04% | 19.1 ± 10.3% | 0.133 ± 0.0031 µM | – | – | – | – | – | – |
| COc1cccc(C2(O)CCN(S(=O)(=O)C(C)C)CC2CN(C)C)c1.Cl (stereo not drawn) [FWBH20, 3-((Dimethylamino)methyl)-1-(isopropylsulfonyl)-4-(3-methoxyphenyl)piperidin-4-ol hydrochloride] | 20.8 ± 1.91% | 0% | 6.88 ± 4.38% | 0.255 ± 0.0053 µM | – | – | – | – | – | – |
| C=CCS(=O)(=O)N1CCC(O)(c2cccc(OC)c2)C(CN(C)C)C1.Cl (stereo not drawn) [FWBH21, 1-(Allylsulfonyl)-3-((dimethylamino)methyl)-4-(3-methoxyphenyl)piperidin-4-ol hydrochloride] | 31.52 ± 0.21% | 18.80% | 17.1% | 0.0404 ± 0.00499 µM | – | – | – | – | – | – |
| COc1cccc(C2(O)CCN(S(=O)(=O)Cc3cccc([N+](=O)[O-])c3)CC2CN(C)C)c1.Cl (stereo not drawn) [FWBH22, 3-((Dimethylamino)methyl)-4-(3-methoxyphenyl)-1-((3-nitrobenzyl)sulfonyl)piperidin-4-ol hydrochloride] | 10.2 ± 3.19% | 41.43% | 32.7 ± 3.1% | 0.212 ± 0.009 µM | – | – | – | – | – | – |
| COc1cccc(C2(O)CCN(S(C)(=O)=O)CC2CN(C)C)c1.Cl (stereo not drawn) [FWBH23, 3-((Dimethylamino)methyl)-4-(3-methoxyphenyl)-1-(methylsulfonyl)piperidin-4-ol hydrochloride] | 16 ± 1.99% | 16.87% | 14.3 ± 3.33% | 0.192 ± 0.015 µM | – | – | – | – | – | – |
| COc1cccc(C2(O)CCN(S(=O)(=O)C[C@@]34CC[C@@H](CC3=O)C4(C)C)CC2CN(C)C)c1 (stereo partly drawn) [FWBH24, (1R,4S)-1-(((3-((Dimethylamino)methyl)-4-hydroxy-4-(3-methoxyphenyl)piperidin-1-yl)sulfonyl)methyl)-7,7-Dimethylbicyclo[2.2.1]heptan-2-one hydrochloride] | 11.1 ± 1.3% | 54.81% | – | 0.0651 ± 0.00536 µM | – | 0.433 ± 0.0153 µM | – | – | – | – |
| COc1cccc(C2(O)CCN(S(=O)(=O)C[C@]34CC[C@H](CC3=O)C4(C)C)CC2CN(C)C)c1 (stereo partly drawn) [FWBH25, (1S,4R)-1-(((3-((Dimethylamino)methyl)-4-hydroxy-4-(3-methoxyphenyl)piperidin-1-yl)sulfonyl)methyl)-7,7-dimethylbicyclo[2.2.1]heptan-2-one hydrochloride] | 14.3 ± 8.63% | 6.03% | – | 0.0508 ± 0.00156 µM | – | 0.054 ± 0.0209 µM | – | – | – | – |
| COc1cccc(C2(O)CCN(S(=O)(=O)C[C@@]34CC[C@@H](CC3O)C4(C)C)CC2CN(C)C)c1 (stereo partly drawn) [FWBH26, 3-((Dimethylamino)methyl)-1-((((1R,4S)-2-hydroxy-7,7-dimethylbicyclo[2.2.1]hept-1-yl)methyl)sulfonic acid acyl)-4-(3-methoxyphenyl)piperidin-4-ol hydrochlorid, hydrochloride] | 9.15 ± 1.92% | 44.91% | – | 0.0115 ± 0.0016 µM | – | 0.0082 ± 0.0031 µM | – | – | – | – |
| COc1cccc(C2(O)CCN(S(=O)(=O)C[C@]34CC[C@H](CC3O)C4(C)C)CC2CN(C)C)c1 (stereo partly drawn) [FWBH27, 3-((Dimethylamino)methyl)-1-((((1S,4R)-2-hydroxy-7,7-dimethylbicyclo[2.2.1]hept-1-yl)methyl)sulfonyl)-4-(3-methoxyphenyl)piperidin-4-ol hydrochloride] | 24.8 ± 0.77% | 12.21% | – | 0.0325 ± 0.0033 µM | – | 0.0277 ± 0.0039 µM | – | – | – | – |
| COc1cccc(C2(O)CCC(N(C)S(=O)(=O)c3ccccc3)CC2CN(C)C)c1.Cl (stereo not drawn) [N-(3-((Dimethylamino)methyl)-4-hydroxy-4-(3-methoxyphenyl)cyclohexyl)-N-methylbenzenesulfonamide hydrochloride] | – | – | – | – | – | – | 0% | 15.8% | 46.7 ± 9.2% | 86.7 ± 1.6% |
| COc1cccc(C2(O)CCC(N(C)S(=O)(=O)c3cccs3)CC2CN(C)C)c1.Cl (stereo not drawn) [N-(3-((Dimethylamino)methyl)-4-hydroxy-4-(3-methoxyphenyl)cyclohexyl)-N-methylthiophene-2-sulfonamide hydrochloride] | – | – | – | – | – | – | 0% | 14.3% | 51.4 ± 7.5% | 62 ± 6.8% |
| COc1cccc(C2(O)CCC(NS(=O)(=O)c3cccs3)CC2CN(C)C)c1.Cl (stereo not drawn) [N-(3-((Dimethylamino)methyl)-4-hydroxy-4-(3-methoxyphenyl)cyclohexyl)thiophene-2-sulfonamide hydrochloride] | – | – | – | – | – | – | 0% | 19.5% | 37 ± 6.8% | 57 ± 4.8% |
| COc1cccc(C2(O)CCC(N(Cc3ccccc3)S(=O)(=O)c3cccs3)CC2CN(C)C)c1.Cl (stereo not drawn) [N-Benzyl-N-(3-((dimethylamino)methyl)-4-hydroxy-4-(3-methoxyphenyl)cyclohexyl)thiophene-2-sulfonamide hydrochloride] | – | – | – | – | – | – | 0% | 22.8% | 71.2 ± 2.7% | 68.4 ± 3.4% |
